Like-named read-outs stand apart in the source and are kept apart here.
How the values were obtained:
[1] = test system: acutely dissociated and purified rat OPCs; assay: Acute OL differentiation assay (MBP expression/cell, immunofluorescent image quantification); type: cell-based
In short: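 This acute differentiation assay used purified rat OPCs from postnatal day 6–7 pups, seeded into PDL/laminin-coated 96-well plates in differentiation medium lacking PDGF and FGF. Compounds were applied in quadruplicate after a 1–2 h preincubation at 37 °C, 10 % CO2, with 0.1 % DMSO negative and 40 ng/ml T3 positive controls in eight wells. After fixation on DIV4, anti-MBP immunofluorescence images yielded MBP expression/cell.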

[2] = test system: expanded OPCs; assay: cells; conditions: for viability at 0.1 µM / viability at 1 µM / viability at 10 µM: Rattus norvegicus, 72 h
In short: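 Toxicity screen: compounds added at 0.1, 1 and 10 µM to PDGF-AA-expanded OPCs in 96-well plates, 3-day incubation at 37 °C, 10% CO2, then alamarBlue 1:10 for 4 h with fluorescence readout. Results set screening doses of 10/2, 2/0.4 or 0.4/0.08 µM.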

[3] = Rattus norvegicus, 2 uM test compound, relative to quetiapine, sheet "All OLga data", read-out: OL differentiation, 2 uM (% Quet)
[4] = Rattus norvegicus, 10 uM test compound, relative to quetiapine, sheet "All OLga data", read-out: OL differentiation, 10 uM (% Quet)
[5] = read-out: 0.1 µM (% DMSO), alamarBlue viability of expanded OPCs, compound at 0.1 µM, sheet All Tox data
[6] = read-out: 1 µM (% DMSO), alamarBlue viability of expanded OPCs, compound at 1 µM, sheet All Tox data
[7] = read-out: 10 µM (% DMSO), alamarBlue viability of expanded OPCs, compound at 10 µM, sheet All Tox data
[8] = Rattus norvegicus, test compound at 2 uM, NCC library screen, sheet "All OLga data", relative to quetiapine, read-out: 2 uM (% Quet)
[9] = Rattus norvegicus, test compound at 10 uM, NCC library screen, sheet "All OLga data", relative to quetiapine, read-out: 10 uM (% Quet)
[10] = read-out: 0.1 µM (% DMSO), alamarBlue viability, NCC library compound at 0.1 µM, sheet "All Tox data"
[11] = read-out: 1 µM (% DMSO), alamarBlue viability, NCC library compound at 1 µM, sheet "All Tox data"
[12] = read-out: 10 µM (% DMSO), alamarBlue viability, NCC library compound at 10 µM, sheet "All Tox data"
[13] = Rattus norvegicus, 0.08 uM test compound, relative to quetiapine, sheet "All OLga data", read-out: OL differentiation, 0.08 uM (% Quet)
[14] = Rattus norvegicus, 0.4 uM test compound, relative to quetiapine, sheet "All OLga data", read-out: OL differentiation, 0.4 uM (% Quet)
[15] = Rattus norvegicus, test compound at 0.08 uM, NCC library screen, sheet "All OLga data", relative to quetiapine, read-out: 0.08 uM (% Quet)
[16] = Rattus norvegicus, test compound at 0.4 uM, NCC library screen, sheet "All OLga data", relative to quetiapine, read-out: 0.4 uM (% Quet)
[17] = alamarBlue viability of expanded OPCs, compound at 0.1 µM, relative to DMSO control
[18] = alamarBlue viability of expanded OPCs, compound at 1 µM, relative to DMSO control
[19] = alamarBlue viability of expanded OPCs, compound at 10 µM, relative to DMSO control
[20] = test compound at 2 uM, NCC library screen, sheet "All OLga data", relative to quetiapine
[21] = alamarBlue viability, NCC library compound at 0.1 µM, sheet "All Tox data"
[22] = alamarBlue viability, NCC library compound at 1 µM, sheet "All Tox data"
[23] = alamarBlue viability, NCC library compound at 10 µM, sheet "All Tox data"

Structure (SMILES) | activation at 2 µM [1, 3] [%] | activation at 10 µM [1, 4] [%] | viability at 0.1 µM [2, 5] [%] | viability at 1 µM [2, 6] [%] | viability at 10 µM [2, 7] [%] | viability at 0.1 µM [2, 10] [%] | viability at 1 µM [2, 11] [%] | viability at 10 µM [2, 12] [%] | also measured
CC(C(O)c1ccc(O)cc1)N1CCC(Cc2ccccc2)CC1 (stereo not shown) [Ifenprodil, reference compound] | 162 | 154 | 93 | 135 | 103 | – | – | – | EC50 ([1]; Rattus norvegicus, average EC50 for induction of OL differentiation from independent biological replicates, eight concentrations): 400 nM; hit in OL differentiation assay, MRF-TMC ([1]; ● = confirmed hit in this paper's assay): ●
CC1Cc2ccccc2N1NC(=O)c1ccc(Cl)c(S(N)(=O)=O)c1 (stereo not shown) [Indapamide] | – | – | – | – | – | 95.2 | 92.1 | 101 | activation at 2 µM [1, 8]: -10%; activation at 10 µM [1, 9]: -12.4%
CNC1CC(c2ccc(Cl)c(Cl)c2)c2ccccc21 (stereo not shown) [Indatraline] | – | – | 75.5 | 41.1 | 11.7 | – | – | – | activation at 0.08 µM [1, 13]: 15.3%; activation at 0.4 µM [1, 14]: 24.5%
CC(C)(C)NC(=O)[C@@H]1CN(Cc2cccnc2)CCN1C[C@@H](O)C[C@@H](Cc1ccccc1)C(=O)N[C@H]1c2ccccc2C[C@H]1O [Indinavir] | 13.4 | -44.2 | 105 | 91.7 | 92.2 | – | – | – | –
O=C1Nc2ccccc2/C1=C1/Nc2ccccc2C1=O [Indirubin] | 108 | – | – | – | – | 97.6 | 78.2 | 46.3 | activation at 0.4 µM [1, 14]: 26%
COc1ccc2c(c1)c(CC(=O)O)c(C)n2C(=O)c1ccc(Cl)cc1 [Indomethacin] | -10.2 | 2.6 | 81.3 | 85.4 | 87.1 | – | – | – | –
CC(C)Oc1ccc2c(=O)c(-c3ccccc3)coc2c1 [Ipriflavone] | 22.5 | 32 | 87.3 | 92.1 | 117 | – | – | – | –
CCCCC1=NC2(CCCC2)C(=O)N1Cc1ccc(-c2ccccc2-c2nnn[nH]2)cc1 [Irbesartan] | 0.6 | -16.7 | – | – | – | 88.9 | 92.8 | 89.7 | –
CCc1c2c(nc3ccc(OC(=O)N4CCC(N5CCCCC5)CC4)cc13)-c1cc3c(c(=O)n1C2)COC(=O)[C@]3(O)CC [Irinotecan] | – | – | – | – | – | 82.8 | 49.7 | 27.9 | activation at 0.08 µM [1, 15]: -38.4%; activation at 0.4 µM [1, 16]: -140%
Nc1nc(N)nc(-c2cc(Cl)ccc2Cl)n1 [Irsogladine] | 20.6 | 6.1 | 92.2 | 92.7 | 94.8 | – | – | – | –
NNC(=O)c1ccncc1 [Isoniazid] | – | – | – | – | – | – | – | – | activation at 2 µM [1, 8]: -8.7%; activation at 10 µM [1, 9]: 3.1%; 0.1 µM (% DMSO) [2, 17]: 98.2 % DMSO; 1 µM (% DMSO) [2, 18]: 98.4 % DMSO; 10 µM (% DMSO) [2, 19]: 66.3 % DMSO
CC(C)NCC(O)c1ccc(O)c(O)c1 (stereo not shown) [Isoproterenol] | – | – | – | – | – | – | – | – | activation at 2 µM [1, 8]: -19.5%; activation at 10 µM [1, 9]: -148%; 0.1 µM (% DMSO) [2, 17]: 95.1 % DMSO; 1 µM (% DMSO) [2, 18]: 94.6 % DMSO; 10 µM (% DMSO) [2, 19]: 67.7 % DMSO
O=c1c(O[C@@H]2O[C@H](CO)[C@@H](O)[C@H](O)[C@H]2O)c(-c2ccc(O)c(O)c2)oc2cc(O)cc(O)c12 [Isoquercitrin] | 12.9 | 8.7 | 85.5 | 92.9 | 101 | – | – | – | –
CC1=C(/C=C/C(C)=C/C=C/C(C)=C\C(=O)O)C(C)(C)CCC1 [Isotretinoin] | – | – | – | – | – | – | – | – | activation at 2 µM ([1]; Rattus norvegicus, test compound at 2 uM, MBP expression relative to quetiapine, NCC library screen, sheet "All OLga data", read-out: 2 uM (% Quet)): -19.2%; activation at 10 µM ([1]; Rattus norvegicus, test compound at 10 uM, MBP expression relative to quetiapine, NCC library screen, sheet "All OLga data", read-out: 10 uM (% Quet)): -6.2%; 0.1 µM (% DMSO) [2, 17]: 104.5 % DMSO; 1 µM (% DMSO) [2, 18]: 112.6 % DMSO; 10 µM (% DMSO) [2, 19]: 136.3 % DMSO
CC(COc1ccccc1)NC(C)C(O)c1ccc(O)cc1 (stereo not shown) [Isoxsuprine] | – | – | – | – | – | – | – | – | activation at 2 µM [1, 8]: 13.2%; activation at 10 µM [1, 9]: 2.2%; 0.1 µM (% DMSO) [2, 17]: 97.2 % DMSO; 1 µM (% DMSO) [2, 18]: 91.9 % DMSO; 10 µM (% DMSO) [2, 19]: 60.9 % DMSO
COC(=O)C1=C(C)NC(C)=C(C(=O)OC(C)C)C1c1cccc2nonc12 (stereo not shown) [Isradipine] | -6.1 | – | – | – | – | 89.4 | 80.5 | 45.6 | activation at 0.4 µM [1, 14]: -7.2%
O=C(O)C[C@H](O)C[C@H](O)/C=C/c1c(C2CC2)nc2ccccc2c1-c1ccc(F)cc1 [Itavastain] | – | – | – | – | – | – | – | – | 0.4 uM (% Quet) ([1]; test compound at 0.4 uM, NCC library screen, sheet "All OLga data", relative to quetiapine): -60.9 % Quet; 2 uM (% Quet) [1, 20]: -74.4 % Quet; 0.1 µM (% DMSO) [2, 21]: 114.3 % DMSO; 1 µM (% DMSO) [2, 22]: 70.7 % DMSO; 10 µM (% DMSO) [2, 23]: 19.8 % DMSO
COc1ccc(C(=O)NCc2ccc(OCCN(C)C)cc2)cc1OC [Itopride] | -2.3 | 2 | – | – | – | 112 | 97.5 | 87.1 | –
CCC(C)n1ncn(-c2ccc(N3CCN(c4ccc(OCC5COC(Cn6cncn6)(c6ccc(Cl)cc6Cl)O5)cc4)CC3)cc2)c1=O (stereo not shown) [Itraconazole] | – | – | 86.1 | 29.2 | 26.2 | – | – | – | activation at 0.08 µM [1, 13]: 2.8%; activation at 0.4 µM [1, 14]: -174%
CN(CCO)CC(O)Cn1cnc2c1c(=O)n(C)c(=O)n2C (stereo not shown) [Jupal] | – | – | – | – | – | – | – | – | 2 uM (% Quet) [1, 20]: 0.8 % Quet; 10 uM (% Quet) ([1]; test compound at 10 uM, NCC library screen, sheet "All OLga data", relative to quetiapine): 6.5 % Quet; 0.1 µM (% DMSO) [2, 21]: 92.2 % DMSO; 1 µM (% DMSO) [2, 22]: 91.0 % DMSO; 10 µM (% DMSO) [2, 23]: 92.4 % DMSO
CC(=O)N1CCN(c2ccc(OCC3COC(Cn4ccnc4)(c4ccc(Cl)cc4Cl)O3)cc2)CC1 (stereo not shown) [Ketoconazole] | 16.5 | -67.7 | 98.1 | 126 | 109 | – | – | – | –
CC(C(=O)O)c1cccc(C(=O)c2ccccc2)c1 (stereo not shown) [Ketoprofen] | – | – | – | – | – | – | – | – | activation at 2 µM [1, 8]: 0.75%; activation at 10 µM [1, 9]: -29.2%; 0.1 µM (% DMSO) [2, 17]: 90.4 % DMSO; 1 µM (% DMSO) [2, 18]: 89.7 % DMSO; 10 µM (% DMSO) [2, 19]: 95.0 % DMSO
O=C(c1ccccc1)c1ccc2n1CCC2C(=O)O (stereo not shown) [Ketorolac] | – | – | – | – | – | 97.7 | 102 | 103 | activation at 2 µM [1, 8]: 16.3%; activation at 10 µM [1, 9]: -1.3%
CN1CCC(=C2c3ccccc3CC(=O)c3sccc32)CC1 [Ketotifen] | – | – | – | – | – | 85.1 | 72.7 | 36.9 | activation at 0.4 µM [1, 16]: -11.2%; activation at 2 µM [1, 8]: 0.04%
[H]/N=C(/NC)NCCC[C@H](N)C(=O)O [L-NMMA] | 3 | 7.7 | 84.1 | 92.4 | 93 | – | – | – | –
CCCc1c(OCCCCc2nnn[nH]2)ccc(C(C)=O)c1O [LY 171883] | -33.3 | -5.4 | 79.7 | 81.3 | 86.1 | – | – | – | –
CC(CCc1ccccc1)NCC(O)c1ccc(O)c(C(N)=O)c1 (stereo not shown) [Labetalol] | – | – | – | – | – | 92.7 | 79.2 | 47.3 | activation at 0.4 µM [1, 16]: -5.2%; activation at 2 µM [1, 8]: -15.3%
CCOC(=O)C1=C(C)NC(C)=C(C(=O)OCC)C1c1ccccc1/C=C/C(=O)OC(C)(C)C [Lacidipine] | – | – | – | – | – | 64.4 | 55.3 | 8.7 | activation at 0.08 µM [1, 15]: -1.1%; activation at 0.4 µM [1, 16]: -11.2%

From article PMC5011342, “A high throughput drug screening assay to identify compounds that promote oligodendrocyte differentiation using acutely dissociated and purified oligodendrocyte precursor cells” (BMC Research Notes, 2016)
